Experiment [1] concerns peripheral blood mononuclear cells (PBMCs). Kind of experiment: IL-6 induction in fresh human PBMCs. The experiment is classed as cell-based. Particulars: for Maximum cytokine response h-IL-6 / Minimal Effective Concentration h-IL-6: human IL-6, NR = no response. As to the method:
Tumor necrosis factor alpha (TNFα) and IL-6 production in peripheral blood mononuclear cells (PBMCs) was measured after exposure to various concentrations of the DAT compounds synthesized as shown above. Initial studies focused on two different methods of delivery of the DAT compounds to PBMC cultures. In the first delivery method, the indicated derivative compound was dissolved in isopropanol, serially diluted, and then dried to the bottom of a tissue culture plate. In the second delivery method, the indicated derivative compound was dissolved in DMSO and serially diluted into tissue culture media. In each method, PBMCs were added to the compounds and incubated at 37° C. TNFα (FIG. 1A) and IL-6 (FIG. 1B) were measured after 18-24 hours after treatment by ELISA assay.
The isolated PBMCs were exposed to increasing concentrations of the indicated compounds resuspended in DMSO and serially diluted in media. IL-6 levels were determined from supernatants eighteen hours after treatment (FIG. 3).

The test system of another experiment is RAW264.7 cells. As to the kind of experiment: Cytokine (TNFα) response of mouse macrophage cell line; Table 2 'Murine'. More on the design: Maximum cytokine response Murine: unit not given here. Particulars: NR = no response. In kind it is cell-based. The method, then:
Compounds were also tested in a mouse macrophage cell line (FIG. 4B). RAW264.7 cells were subjected to increasing concentrations of the compounds and assessed for production of the cytokine TNFα.

Regarding `CCCCCCOc1cc(C(=O)OC[C@H]2O[C@H](O[C@H]3O[C@H](COC(=O)c4cc(OCCCCCC)c(OCCCCCC)c(OCCCCCC)c4)[C@@H](O)[C@H](O)[C@H]3O)[C@H](O)[C@@H](O)[C@@H]2O)cc(OCCCCCC)c1OCCCCCC` [UM1097], in experiment [1], the “Maximum cytokine response h-IL-6” value was 3.3 OD and the “Minimal Effective Concentration h-IL-6” value came out at 3.7 µM. In the experiment with RAW264.7 cells, the “Maximum cytokine response Murine” value amounted to 0.005 and the “Minimal Effective Concentration Murine” value amounted to 3.4 µM.
The like results for `O=C(OC[C@H]1O[C@H](O[C@H]2O[C@H](COC(=O)c3ccccc3C(F)(F)F)[C@@H](O)[C@H](O)[C@H]2O)[C@H](O)[C@@H](O)[C@@H]1O)c1ccccc1C(F)(F)F` [UM1042] were, in that order, 2 OD, 50 µM, 0.9 and 11 µM.
As for `CC(C)(C)c1cc(C(=O)OC[C@H]2O[C@H](O[C@H]3O[C@H](COC(=O)c4cc(C(C)(C)C)cc(C(C)(C)C)c4)[C@@H](O)[C@H](O)[C@H]3O)[C@H](O)[C@@H](O)[C@@H]2O)cc(C(C)(C)C)c1` [UM1047], in experiment [1], the “Maximum cytokine response h-IL-6” value came out at 1 OD and the “Minimal Effective Concentration h-IL-6” value was 11 µM. In the experiment with RAW264.7 cells, the “Maximum cytokine response Murine” value was 0.9 and the “Minimal Effective Concentration Murine” value was determined as 1.2 µM.
On the same counts, the results for `O=C(OC[C@H]1O[C@H](O[C@H]2O[C@H](COC(=O)c3cc(C(F)(F)F)ccc3C(F)(F)F)[C@@H](O)[C@H](O)[C@H]2O)[C@H](O)[C@@H](O)[C@@H]1O)c1cc(C(F)(F)F)ccc1C(F)(F)F` [UM1066] are 2.6 OD, 33.3 µM, 3 and 100 µM.
The like results for `CC(C)(C)c1cc(C(C)(C)C)c(O)c(C(=O)OC[C@H]2O[C@H](O[C@H]3O[C@H](COC(=O)c4c(O)c(C(C)(C)C)cc(C(C)(C)C)c4O)[C@@H](O)[C@H](O)[C@H]3O)[C@H](O)[C@@H](O)[C@@H]2O)c1O` [UM1046] were, in that order, 3 OD, 20 µM, 0.8 and 0.4 µM.
On the same counts, the results for `O=C(OC[C@H]1O[C@H](O[C@H]2O[C@H](COC(=O)c3c(C(F)(F)F)cccc3C(F)(F)F)[C@@H](O)[C@H](O)[C@H]2O)[C@H](O)[C@@H](O)[C@@H]1O)c1c(C(F)(F)F)cccc1C(F)(F)F` [UM1065] are 3 OD, 3.7 µM, 2.5 and 100 µM.
On to `COc1cc(OC)cc(C(=O)OC[C@H]2O[C@H](O[C@H]3O[C@H](COC(=O)c4cc(OC)cc(OC)c4)[C@@H](O)[C@H](O)[C@H]3O)[C@H](O)[C@@H](O)[C@@H]2O)c1` [UM1014], for which, in experiment [1] (compounds in DMSO serially diluted in media, supernatants 18 h after treatment, listed as 1014), the “IL-6 production / activity in fresh PBMCs from multiple donors (in words)” value was “inactive”. In the experiment with RAW264.7 cells (listed as 1014), the “Maximum cytokine response Murine” value stood at 3.3 and the “Minimal Effective Concentration Murine” value came out at 37 µM.
In the case of `COc1cccc(/C=C/C(=O)OC[C@H]2O[C@H](O[C@H]3O[C@H](COC(=O)/C=C/c4cccc(OC)c4OC)[C@@H](O)[C@H](O)[C@H]3O)[C@H](O)[C@@H](O)[C@@H]2O)c1OC` [UM1018], in experiment [1], the “Maximum cytokine response h-IL-6” value was determined as 1.3 OD and the “Minimal Effective Concentration h-IL-6” value came to 333 µM. In the experiment on RAW264.7 cells, the “Maximum cytokine response Murine” value is recorded as 3.5 and the “Minimal Effective Concentration Murine” value stood at 37 µM.
With `CCCCOc1cc(OCCCC)cc(C(=O)OC[C@H]2O[C@H](O[C@H]3O[C@H](COC(=O)c4cc(OCCCC)cc(OCCCC)c4)[C@@H](O)[C@H](O)[C@H]3O)[C@H](O)[C@@H](O)[C@@H]2O)c1` [UM1051], in experiment [1], the “Maximum cytokine response h-IL-6” value came to 2.5 OD and the “Minimal Effective Concentration h-IL-6” value came out at 6 µM. Further, in the experiment with RAW264.7 cells, the “Maximum cytokine response Murine” value is 1.3 and the “Minimal Effective Concentration Murine” value was 0.13 µM.
On the same counts, the results for `CC(C)(C)c1cc(C(=O)NC[C@H]2O[C@H](O[C@H]3O[C@H](CNC(=O)c4cc(C(C)(C)C)cc(C(C)(C)C)c4O)[C@@H](O)[C@H](O)[C@H]3O)[C@H](O)[C@@H](O)[C@@H]2O)c(O)c(C(C)(C)C)c1` [UM1088] are 3.5 OD, 2.5 µM, 1.3 and 0.4 µM.
On the same counts, the results for `Cc1ccccc1-c1cccc(C(=O)OC[C@H]2O[C@H](O[C@H]3O[C@H](COC(=O)c4cccc(-c5ccccc5C)c4)[C@@H](O)[C@H](O)[C@H]3O)[C@H](O)[C@@H](O)[C@@H]2O)c1` [UM1041] are 1.3 OD, 5 µM, 1.2 and 33 µM.
With `CCCOc1cc(C(=O)OC[C@H]2O[C@H](O[C@H]3O[C@H](COC(=O)c4cc(OCCC)c(OCCC)c(OCCC)c4)[C@@H](O)[C@H](O)[C@H]3O)[C@H](O)[C@@H](O)[C@@H]2O)cc(OCCC)c1OCCC` [UM1095], in experiment [1], the “Maximum cytokine response h-IL-6” value is reported as 3.3 OD and the “Minimal Effective Concentration h-IL-6” value was 3.7 µM. For the same compound, in the experiment on RAW264.7 cells, the “Maximum cytokine response Murine” value is recorded as 0.001 and the “Minimal Effective Concentration Murine” value came to 3.4 µM.
The like results for `CCCCCOc1cc(OCCCCC)cc(C(=O)NC[C@H]2O[C@H](O[C@H]3O[C@H](CNC(=O)c4cc(OCCCCC)cc(OCCCCC)c4)[C@@H](O)[C@H](O)[C@H]3O)[C@H](O)[C@@H](O)[C@@H]2O)c1` [UM1111] were, in that order, 2.5 OD, 33.3 µM, 0.13 and 3.3 µM.
The like results for `COc1ccc(-c2ccc(C(=O)OC[C@H]3O[C@H](O[C@H]4O[C@H](COC(=O)c5ccc(-c6ccc(OC)cc6)cc5)[C@@H](O)[C@H](O)[C@H]4O)[C@H](O)[C@@H](O)[C@@H]3O)cc2)cc1` [UM1070] were, in that order, 3 OD, 33.3 µM, 2 and 100 µM.
The like results for `CC(C)(C)c1cc(C(=O)NC[C@H]2O[C@H](O[C@H]3O[C@H](CNC(=O)c4cc(C(C)(C)C)cc(C(C)(C)C)c4)[C@@H](O)[C@H](O)[C@H]3O)[C@H](O)[C@@H](O)[C@@H]2O)cc(C(C)(C)C)c1` [UM1123] were, in that order, 2.7 OD, 33.3 µM, 0.13 and 3.3 µM.
For `Cc1cccc(Nc2ccccc2C(=O)OC[C@H]2O[C@H](O[C@H]3O[C@H](COC(=O)c4ccccc4Nc4cccc(C)c4C)[C@@H](O)[C@H](O)[C@H]3O)[C@H](O)[C@@H](O)[C@@H]2O)c1C` [UM1074], in experiment [1], the “Maximum cytokine response h-IL-6” value is on record as 3.5 OD and the “Minimal Effective Concentration h-IL-6” value is 33.3 µM. For the same compound, in the experiment on RAW264.7 cells, the “Maximum cytokine response Murine” value was 2 and the “Minimal Effective Concentration Murine” value stood at 1.2 µM.
The like results for `O=C(OC[C@H]1O[C@H](O[C@H]2O[C@H](COC(=O)c3ccc(-c4ccccc4)cc3O)[C@@H](O)[C@H](O)[C@H]2O)[C@H](O)[C@@H](O)[C@@H]1O)c1ccc(-c2ccccc2)cc1O` [UM1062] were, in that order, 3 OD, 100 µM, 3 and 100 µM.
On the same counts, the results for `CCCCOc1cc(C(=O)OC[C@H]2O[C@H](O[C@H]3O[C@H](COC(=O)c4cc(OCCCC)c(OCCCC)c(OCCCC)c4)[C@@H](O)[C@H](O)[C@H]3O)[C@H](O)[C@@H](O)[C@@H]2O)cc(OCCCC)c1OCCCC` [UM1096] are 3.2 OD, 2.5 µM, 0.005 and 3 µM.
The like results for `CCCCCCCCCCOc1cc(C(=O)OC[C@H]2O[C@H](O[C@H]3O[C@H](COC(=O)c4cc(OCCCCCCCCCC)c(OCCCCCCCCCC)c(OCCCCCCCCCC)c4)[C@@H](O)[C@H](O)[C@H]3O)[C@H](O)[C@@H](O)[C@@H]2O)cc(OCCCCCCCCCC)c1OCCCCCCCCCC` [UM1099] were, in that order, 3.2 OD, 11 µM, 0.005 and 3.4 µM.
In the case of `CC(C)(C)c1cc(CCC(=O)OC[C@H]2O[C@H](O[C@H]3O[C@H](COC(=O)CCc4cc(C(C)(C)C)c(O)c(C(C)(C)C)c4)[C@@H](O)[C@H](O)[C@H]3O)[C@H](O)[C@@H](O)[C@@H]2O)cc(C(C)(C)C)c1O` [UM1086], in experiment [1], the “Maximum cytokine response h-IL-6” value turned out to be 3 OD and the “Minimal Effective Concentration h-IL-6” value was determined as 33.3 µM. Further, in the experiment with RAW264.7 cells, the “Maximum cytokine response Murine” value worked out at 3 and the “Minimal Effective Concentration Murine” value worked out at 0.13 µM.
With `CCOc1cc(C(C)(C)C)ccc1C(=O)OC[C@H]1O[C@H](O[C@H]2O[C@H](COC(=O)c3ccc(C(C)(C)C)cc3OCC)[C@@H](O)[C@H](O)[C@H]2O)[C@H](O)[C@@H](O)[C@@H]1O` [UM1132], in experiment [1], the “Maximum cytokine response h-IL-6” value is listed as 2.6 OD and the “Minimal Effective Concentration h-IL-6” value is 100 µM.
